Tests used:
Assay type in all cases: cell-based
[1] = system: SNU-16 (FGFR2-amplification) cells; assay: cell proliferation assay (CellTiterGlo), SNU-16 cells; details: Homo sapiens, 72 hours
Summary of the method: (§1)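 Luminescent ATP read-out (CellTiterGlo) after exposure to compound at varying concentrations or DMSO vehicle. IC50 derived with vehicle-treated wells set as viable cells.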

[2] = system: RT-112 (FGFR3-Tacc3 fusion) cells; assay: cell proliferation assay (CellTiterGlo), RT-112 cells; details: Homo sapiens, RT-112, RT112 cells, 72 hours
Summary of the method: as §1

[3] = system: DMS-114 (FGFR1 overexpression) cells; assay: cell proliferation assay (CellTiterGlo), DMS-114 cells
Summary of the method: as §1

[4] = system: UM-UC-14 (FGFR3-S249C) cells; assay: cell proliferation assay (CellTiterGlo), UM-UC-14 cells; details: UMUC14, 72 h
Summary of the method: as §1

| Structure (SMILES) | IC50 [1] | IC50 [2] | IC50 ([3]; Homo sapiens, DMS-114, 72 h) | IC50 [4] | IC50 ([3]; 72 hours) |
| --- | --- | --- | --- | --- | --- |
| Cc1nc2ccc(Oc3ccc4ncc(-c5cnn(CC6CC(F)(F)C6)c5)nc4c3C3=CC(C)(C)OC3(C)C)cc2[nH]1 [Compound 90] | 20 to 100 nM | 20 to 100 nM | 100 to 400 nM | 20 to 100 nM | – |
| Cc1nc2ccc(Oc3ccc4ncc(-c5cnn(CC6CC(F)(F)C6)c5C)nc4c3Cl)cc2[nH]1 [Compound 275] | ≥ 400 nM | ≥ 400 nM | ≥ 400 nM | 100 to 400 nM | – |
| Cc1nc2ccc(Oc3ccc4ncc(-c5cnn(C6CC(O)C6)c5)nc4c3Cl)cc2[nH]1 (centres unmarked) [Compound 258] | 20 to 100 nM | 20 to 100 nM | ≥ 400 nM | 20 to 100 nM | – |
| Cc1nc2ccc(Oc3ccc4ncc(-c5cnn(CC(=O)N6CCOCC6)c5)nc4c3Cl)cc2[nH]1 [Compound 285] | 20 to 100 nM | 20 to 100 nM | ≥ 400 nM | 20 to 100 nM | – |
| Cc1nc2ccc(Oc3ccc4ncc(-c5cnn(CC6CS(=O)(=O)C6)c5)nc4c3Cl)cc2[nH]1 [Compound 228] | 20 to 100 nM | 20 to 100 nM | ≥ 400 nM | 20 to 100 nM | – |
| Cc1nc2ccc(Oc3ccc4ncc(-c5cnn(C(C)(C)C(=O)N6CCOCC6)c5)nc4c3Cl)cc2[nH]1 [Compound 209] | 100 to 400 nM | 20 to 100 nM | ≥ 400 nM | 100 to 400 nM | – |
| Cc1nc2ccc(Oc3ccc4ncc(-c5cnn(C6CCNC(C)(C)C6)c5)nc4c3Cl)cc2[nH]1 (centres unmarked) [Compound 249] | 20 to 100 nM | 20 to 100 nM | ≥ 400 nM | 20 to 100 nM | – |
| Cc1nc2cc(Oc3ccc4ncc(-c5cnn(CC6(O)CCN(C7COC7)CC6)c5)nc4c3Cl)ccc2[nH]1 [Compound 248] | 20 to 100 nM | 20 to 100 nM | 100 to 400 nM | 20 to 100 nM | – |
| Cc1nc2ccc(Oc3ccc4ncc(-c5cnn(CC6CC(F)(F)C6)c5)nc4c3C3=CCN(C(=O)OC(C)(C)C)C3)cc2[nH]1 [Compound 84] | 100 to 400 nM | 100 to 400 nM | ≥ 400 nM | ≥ 400 nM | – |
| CSC1CCC(Cn2cc(-c3cnc4ccc(Oc5ccc6nc(C)[nH]c6c5)c(Cl)c4n3)cn2)CC1 (centres unmarked) [Compound 371] | 20 to 100 nM | 20 to 100 nM | ≥ 400 nM | 100 to 400 nM | – |
| Cc1nc2ccc(Oc3ccc4ncc(-c5cnn(CC6CC(C)(O)C6)c5)nc4c3Cl)cc2[nH]1 (centres unmarked) [Compound 257] | < 20 nM | < 20 nM | 100 to 400 nM | 20 to 100 nM | – |
| COC1CN([C@H]2C[C@H](n3cc(-c4cnc5ccc(Oc6ccc7nc(C)[nH]c7c6)c(Cl)c5n4)cn3)C2)C1 [Compound 202] | 20 to 100 nM | 20 to 100 nM | ≥ 400 nM | 20 to 100 nM | – |
| Cc1nc2ccc(Oc3ccc4ncc(-c5cnn([C@H]6C[C@@H](O)C6)c5)nc4c3Cl)c(F)c2[nH]1 [Compound 148] | < 20 nM | < 20 nM | 20 to 100 nM | < 20 nM | – |
| Cc1nc2ccc(Oc3ccc4ncc(-c5cnn(C6CCC(F)(F)CC6)c5)nc4c3Cl)c(F)c2[nH]1 [Compound 153] | 20 to 100 nM | 20 to 100 nM | 100 to 400 nM | 20 to 100 nM | – |
| Cc1nc2cc(F)c(Oc3ccc4ncc(-c5cnn(CCO)c5)nc4c3Cl)cc2[nH]1 [Compound 247] | 20 to 100 nM | 20 to 100 nM | ≥ 400 nM | 20 to 100 nM | – |
| COC1CN([C@H]2C[C@@H](n3cc(-c4cnc5ccc(Oc6ccc7nc(C)[nH]c7c6)c(Cl)c5n4)cn3)C2)C1 [Compound 201] | 20 to 100 nM | 20 to 100 nM | ≥ 400 nM | 20 to 100 nM | – |
| CCS(=O)(=O)N1CC(CC#N)(n2cc(-c3cnc4ccc(Oc5ccc6nc(C)[nH]c6c5)c(Cl)c4n3)cn2)C1 [Compound 374] | 20 to 100 nM | < 20 nM | ≥ 400 nM | 20 to 100 nM | – |
| Cc1nc2ccc(Oc3ccc4ncc(-c5cnn(C6CN(C(F)(F)F)C6)c5)nc4c3Cl)cc2[nH]1 [Compound 200] | 100 to 400 nM | 100 to 400 nM | ≥ 400 nM | 100 to 400 nM | – |
| COC1CCN(C(=O)Cn2cc(-c3cnc4ccc(Oc5ccc6nc(C)[nH]c6c5)c(Cl)c4n3)cn2)C1 (centres unmarked) [Compound 277] | 20 to 100 nM | 20 to 100 nM | ≥ 400 nM | 100 to 400 nM | – |
| Cc1nc2ccc(Oc3ccc4ncc(-c5cnn(C6CCN(c7cncc(F)c7)CC6)c5)nc4c3Cl)cc2[nH]1 [Compound 197] | 100 to 400 nM | 20 to 100 nM | ≥ 400 nM | 100 to 400 nM | – |
| Cc1nc2ccc(Oc3ccc4ncc(-c5cnn(CC6(O)CC6)c5)nc4c3C3=CC(C)(C)OC3)c(F)c2[nH]1 [Compound 73] | < 20 nM | < 20 nM | 20 to 100 nM | < 20 nM | – |
| Cc1nc2ccc(Oc3ccc4ncc(-c5cnn(CC(=O)O)c5)nc4c3Cl)cc2[nH]1 [Compound 269] | ≥ 400 nM | ≥ 400 nM | ≥ 400 nM | ≥ 400 nM | – |

| Structure (SMILES) | IC50 [1] | IC50 [2] | IC50 ([3]; Homo sapiens, DMS-114, 72 h) | IC50 [4] | IC50 ([3]; 72 hours) |
| --- | --- | --- | --- | --- | --- |
| Cc1nc2ccc(Oc3ccc4ncc(-c5cnn(C(C)(C)C6CC(=O)C6)c5)nc4c3Cl)cc2[nH]1 [Compound 150] | 20 to 100 nM | 20 to 100 nM | ≥ 400 nM | 20 to 100 nM | – |
| Cc1nc2ccc(Oc3ccc4ncc(-c5cnn(C6CC7CC6CN7)c5)nc4c3Cl)cc2[nH]1 (centres unmarked) [Compound 353] | 20 to 100 nM | 20 to 100 nM | ≥ 400 nM | 20 to 100 nM | – |
| Cc1nc2ccc(Oc3ccc4ncc(-c5cnn(CC6(N)CC6)c5)nc4c3Cl)cc2[nH]1 [Compound 93] | 100 to 400 nM | 100 to 400 nM | ≥ 400 nM | 20 to 100 nM | – |
| Cc1nc2ccc(Oc3ccc4ncc(-c5cnn(CC(=O)N6CC[C@@H](F)C6)c5)nc4c3Cl)cc2[nH]1 [Compound 283] | 20 to 100 nM | 20 to 100 nM | ≥ 400 nM | 20 to 100 nM | – |
| Cc1nc2ccc(Oc3ccc4ncc(-c5cnn(CC(=O)N6C[C@@H](C)O[C@@H](C)C6)c5)nc4c3Cl)cc2[nH]1 [Compound 193] | 100 to 400 nM | 20 to 100 nM | ≥ 400 nM | 100 to 400 nM | – |
| Cc1nc2ccc(Oc3ccc4ncc(-c5cnn(CC(=O)N6CCCC6)c5)nc4c3Cl)cc2[nH]1 [Compound 383] | 20 to 100 nM | 20 to 100 nM | ≥ 400 nM | 20 to 100 nM | – |
| Cc1nc2ccc(Oc3ccc4ncc(-c5cnn(CC(O)C(F)(F)F)c5)nc4c3Cl)c(F)c2[nH]1 (centres unmarked) [Compound 144] | 20 to 100 nM | 100 to 400 nM | ≥ 400 nM | ≥ 400 nM | – |
| CN=S(C)(=O)N1CCC(n2cc(-c3cnc4ccc(Oc5ccc6nc(C)[nH]c6c5)c(Cl)c4n3)cn2)CC1 (centres unmarked) [Compound 86] | < 20 nM | < 20 nM | 100 to 400 nM | < 20 nM | – |
| CNC(=O)CN1CC(Cn2cc(-c3cnc4ccc(Oc5ccc6nc(C)[nH]c6c5)c(Cl)c4n3)cn2)C1 [Compound 315] | 20 to 100 nM | 20 to 100 nM | ≥ 400 nM | 20 to 100 nM | – |
| Cc1nc2ccc(Oc3ccc4ncc(-c5cnn(C6CN(c7ccccn7)C6)c5)nc4c3Cl)cc2[nH]1 [Compound 191] | 100 to 400 nM | 100 to 400 nM | ≥ 400 nM | 100 to 400 nM | – |
| Cc1nc2ccc(Oc3ccc4ncc(-c5cnn([C@H]6CC7(C[C@@H](O)C7)C6)c5)nc4c3Cl)c(F)c2[nH]1 (some centres unmarked) [Compound 127] | < 20 nM | < 20 nM | 100 to 400 nM | < 20 nM | – |
| Cc1nc2ccc(Oc3ccc4ncc(-c5cnn(CC6CC(F)(F)C6)c5)nc4c3C3CCOCC3)cc2[nH]1 [Compound 94] | ≥ 400 nM | ≥ 400 nM | ≥ 400 nM | ≥ 400 nM | – |
| Cc1nc2ccc(Oc3ccc4ncc(-c5cnn(CC6(O)CC6)c5)nc4c3Cl)cc2[nH]1 [Compound 259] | 20 to 100 nM | 20 to 100 nM | ≥ 400 nM | 20 to 100 nM | – |
| Cc1nc2ccc(Oc3ccc4ncc(-c5cnn(C6CN(C(=O)N7CC(O)C7)C6)c5)nc4c3Cl)cc2[nH]1 [Compound 183] | 100 to 400 nM | 100 to 400 nM | ≥ 400 nM | 100 to 400 nM | – |
| Cc1nc2ccc(Oc3ccc4ncc(-c5cnn(C6CCN(CC(N)=O)CC6)c5)nc4c3Cl)cc2[nH]1 [Compound 330] | < 20 nM | < 20 nM | ≥ 400 nM | 20 to 100 nM | – |
| Cc1nc2ccc(Oc3ccc4ncc(-c5cnn([C@H]6CC7(C[C@@H](O)C7)C6)c5)nc4c3Cl)cc2[nH]1 (some centres unmarked) [Compound 123] | 20 to 100 nM | 20 to 100 nM | – | < 20 nM | 100 to 400 nM |
| Cc1nc2ccc(Oc3ccc4ncc(-c5cnn(CC6CCSCC6)c5)nc4c3Cl)cc2[nH]1 [Compound 377] | 20 to 100 nM | 20 to 100 nM | ≥ 400 nM | 20 to 100 nM | – |
| Cc1nc2ccc(Oc3ccc4ncc(-c5cnn(CC6CCS(=O)(=O)CC6)c5)nc4c3Cl)cc2[nH]1 [Compound 385] | 20 to 100 nM | < 20 nM | 100 to 400 nM | 20 to 100 nM | – |
| CC(=O)N1CCCC(n2cc(-c3cnc4ccc(Oc5ccc6nc(C)[nH]c6c5)c(Cl)c4n3)cn2)C1 (centres unmarked) [Compound 373] | 20 to 100 nM | 20 to 100 nM | ≥ 400 nM | 20 to 100 nM | – |
| Cc1nc2ccc(Oc3ccc4ncc(-c5cnn(CC6CC(O)C6)c5)nc4c3Cl)cc2[nH]1 (centres unmarked) [Compound 325] | < 20 nM | < 20 nM | ≥ 400 nM | 20 to 100 nM | – |
| Cc1nc2ccc(Oc3ccc4ncc(-c5cnn(C[C@@H]6CCS(=O)(=O)C6)c5)nc4c3Cl)cc2[nH]1 [Compound 307] | < 20 nM | < 20 nM | 100 to 400 nM | 20 to 100 nM | – |
| Cc1nc2ccc(Oc3ccc4ncc(-c5cnn([C@H]6C[C@H](N7CC(O)C7)C6)c5)nc4c3Cl)cc2[nH]1 [Compound 214] | 20 to 100 nM | 20 to 100 nM | 100 to 400 nM | 20 to 100 nM | – |
